Source: paper PMC9504029, “Identification and Characterization of Novel Small-Molecule SMOX Inhibitors” (Medical Sciences, 2022)
Read-outs that look alike come from different tables or passages of the source.

Columns and labels:
recombinant human MAO-A = biological target: T1, recombinant human MAO-A (Homo sapiens, UniProt P21397); assay: MAO-Glo assay, MAO-A; format: biochemical; details: for inhibition at 20 µM: read-out: % Inhibition at 20 μM ± SD, MAO-A
T1 construct: purchased Sigma-Aldrich M7316-1VL
T1 sequence (P21397 1-527): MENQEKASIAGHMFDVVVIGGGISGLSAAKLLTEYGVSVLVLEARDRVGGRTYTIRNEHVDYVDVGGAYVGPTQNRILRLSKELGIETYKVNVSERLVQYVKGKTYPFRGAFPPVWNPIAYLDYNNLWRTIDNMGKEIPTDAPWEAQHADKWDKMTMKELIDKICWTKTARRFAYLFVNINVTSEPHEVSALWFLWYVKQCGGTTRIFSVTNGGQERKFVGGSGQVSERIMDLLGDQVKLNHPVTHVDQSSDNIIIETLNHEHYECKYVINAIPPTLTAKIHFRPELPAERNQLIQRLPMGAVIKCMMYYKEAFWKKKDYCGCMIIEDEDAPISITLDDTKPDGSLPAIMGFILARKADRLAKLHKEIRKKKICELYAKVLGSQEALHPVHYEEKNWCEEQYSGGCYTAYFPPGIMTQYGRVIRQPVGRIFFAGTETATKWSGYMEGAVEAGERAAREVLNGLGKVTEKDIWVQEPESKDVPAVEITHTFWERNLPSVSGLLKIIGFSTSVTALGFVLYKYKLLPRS
Method: (§1) To determine selectivity, the compounds were tested for activity against the related FAD-dependent amine oxidase enzymes LSD1, MAO-A, and MAO-B. LSD1 activity was assessed using a commercially available assay kit (#700120, Cayman Chemical, Ann Arbor, MI, USA), in which the enzyme activity was determined by the horseradish peroxidase-catalyzed oxidation of 10-acetyl-3,7-dihydroxyphenoxazine to the highly fluorescent resorufin in response to H2O2 production. Monoamine oxidase activity was determined using recombinant human MAO-A and MAO-B (M7316-1VL & M7441-1VL, Sigma-Aldrich, St. Louis, MO, USA) and a commercially available assay kit (#V1401, MAO-Glo, Promega, Madison, WI, USA), which utilizes the MAO-catalyzed oxidation of a luciferin derivative coupled with esterase activity to produce luminescence. Fluorescent and luminescent readout was obtained using a SpectraMax M5 plate reader (Molecular Devices) equipped with SOFTmax PRO 7.0.3 software. […] Values were reported as mean % inhibition ± SD of triplicate assay wells normalized to background activity and compared to the vehicle control.

SMOX [1] = biological target: T2, SMOX (Homo sapiens, UniProt Q9NWM0); assay: SMOX enzyme activity, HRP-luminol chemiluminescence assay; format: biochemical; details: 2 mM spermine; for inhibition at 20 µM: 20 µM compound, no pre-incubation, triplicate, read-out: % Inhibition at 20 μM ± SD, SMOX; for IC50: AUC over 60 s, pH 8
T2 construct: using 0.3 µg/mL of purified SMOX enzyme and 2 mM of spermine substrate
Method: As the catabolism of spermine by SMOX results in the stoichiometric production of H2O2, enzyme activity was quantified by chemiluminescence generated by the horseradish peroxidase-catalyzed oxidation of luminol in 96-well plates (Costar #3912; white, flat bottom), as previously described. All assays were performed in 0.083 M glycine buffer at a pH of 8 using 0.3 µg/mL of purified SMOX enzyme and 2 mM of spermine substrate. Phosphate buffer was not used to prevent the formation of polyamine–phosphate complexes. Enzyme reactions were initiated by the addition of SMOX and HRP to all other assay components; inhibitors were not pre-incubated with enzyme. Triplicate determinations were obtained for each measurement by recording the luminescence (AUC) over 60 s. Hit compounds were then confirmed by monitoring the assay over 600 s. Each triplicate assay point contained a 4th control well to monitor and normalize the data with regards to luminescent decay over time. The compounds were initially screened for activity at a concentration of 20 µM. […] The known SMOX inhibitor, MDL-72527, was used as a control. The hit compounds were then characterized by IC50 and kinetic analyses. Percent inhibition values are reported as triplicate mean % SMOX inhibition ± SD compared to the vehicle control. IC50 values were calculated in GraphPad Prism 9.3 software (Graph-Pad, San Diego, California) using a non-linear regression analysis ([Inhibitor] vs. normalized response—variable slope). Data for all enzyme assays were generated using a SpectraMax M5 plate reader (Molecular Devices) equipped with SOFTmax PRO 7.0.3 software.

recombinant human MAO-B = biological target: T3, recombinant human MAO-B (Homo sapiens, UniProt P27338); assay: MAO-Glo assay, MAO-B; format: biochemical; details: for inhibition at 20 µM: read-out: % Inhibition at 20 μM ± SD, MAO-B
T3 construct: purchased Sigma-Aldrich M7441-1VL
T3 sequence (P27338 1-520): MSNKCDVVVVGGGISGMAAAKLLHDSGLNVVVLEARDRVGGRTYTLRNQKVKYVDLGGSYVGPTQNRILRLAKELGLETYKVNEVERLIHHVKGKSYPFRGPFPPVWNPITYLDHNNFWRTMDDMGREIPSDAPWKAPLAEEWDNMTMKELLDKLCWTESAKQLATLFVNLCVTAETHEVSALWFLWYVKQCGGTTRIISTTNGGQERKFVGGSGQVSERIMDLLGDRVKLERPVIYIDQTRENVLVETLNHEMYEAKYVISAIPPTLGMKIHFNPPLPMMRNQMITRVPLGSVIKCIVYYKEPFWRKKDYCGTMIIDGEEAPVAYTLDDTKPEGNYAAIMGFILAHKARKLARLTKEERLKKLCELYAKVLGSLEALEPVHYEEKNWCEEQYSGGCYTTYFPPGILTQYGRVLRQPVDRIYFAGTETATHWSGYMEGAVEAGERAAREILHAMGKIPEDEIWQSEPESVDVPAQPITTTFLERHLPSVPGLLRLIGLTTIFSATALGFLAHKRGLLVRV
Method: as §1

LSD1 = biological target: T4, LSD1 (Homo sapiens, UniProt O60341); assay: LSD1 selectivity assay (Cayman kit, resorufin fluorescence); format: biochemical; details: read-out: % Inhibition at 20 μM ± SD, LSD1
T4 construct: purchased Cayman Chemical #700120

[2] = Cytotoxicity analysis, MTS assay; format: cell-based; details: human, SH-SY5Y neuroblastoma cells, MTS
Method: (§2) SH-SY5Y neuroblastoma cells purchased from ATCC (Manassas, VA, USA) were cultured in Dulbecco’s modified Eagle medium (DMEM) without phenol red and supplemented with 10% heat inactivated human AB serum, 4 mM L-glutamine, and 1% penicillin/streptomycin. As the oxidation of spermine by various polyamine oxidases has been documented in cell culture containing ruminant serum, such as in fetal bovine serum (FBS) and horse serum, human AB serum was used to prevent assay interference. The cells were maintained in 5% CO2 humidified atmosphere at 37 °C. Cell media was replaced every 2 days and the cells were discarded after a maximum of 15 passages.
(§3) The SH-SY5Y neuroblastoma cells were plated in 96-well plates at a density of 30,000 cells/well and allowed to reach 80% confluence, followed by treatment with varying concentrations of inhibitor ranging from 0 to 10 mM for 12 h. Cell viability was assessed by standard MTS assay, in which MTS reagent was added to each well at a concentration of 0.33 mg/mL and incubated at 37 °C for 3 h. Viability was monitored and confirmed by a visual inspection of the cells. Absorbance was read at 490 nm and the absorbance values were normalized to background wells containing varying concentrations of inhibitor, cell media, and MTS reagent. Colorimetric readout was obtained using a SpectraMax M5 plate reader (Molecular Devices) equipped with SOFTmax PRO 7.0.3 software.

[3] = system: SH-SY5Y neuroblastoma cells; assay: Cytotoxicity analysis, MTS assay; format: cell-based; details: doses below 1 mM
Method: as §2, §3

SMOX [4] = biological target: T2, SMOX; assay: Mechanism of inhibition and enzyme kinetics (Lineweaver–Burk, global fit); format: biochemical
Method: The mechanism of enzyme inhibition was determined using the HRP-luminol coupled enzyme assay described above. Reaction velocity (max RLU/sec over 10 min) was measured across multiple substrate and inhibitor concentrations, and individual triplicate values were plotted using a Lineweaver–Burk transformation (double-reciprocal) in GraphPad Prism 9.3 software (Graph-Pad, San Diego, CA, USA).

SMOX [5] = biological target: T2, SMOX; details: cited from earlier work

T2 sequence (Q9NWM0 whole entry): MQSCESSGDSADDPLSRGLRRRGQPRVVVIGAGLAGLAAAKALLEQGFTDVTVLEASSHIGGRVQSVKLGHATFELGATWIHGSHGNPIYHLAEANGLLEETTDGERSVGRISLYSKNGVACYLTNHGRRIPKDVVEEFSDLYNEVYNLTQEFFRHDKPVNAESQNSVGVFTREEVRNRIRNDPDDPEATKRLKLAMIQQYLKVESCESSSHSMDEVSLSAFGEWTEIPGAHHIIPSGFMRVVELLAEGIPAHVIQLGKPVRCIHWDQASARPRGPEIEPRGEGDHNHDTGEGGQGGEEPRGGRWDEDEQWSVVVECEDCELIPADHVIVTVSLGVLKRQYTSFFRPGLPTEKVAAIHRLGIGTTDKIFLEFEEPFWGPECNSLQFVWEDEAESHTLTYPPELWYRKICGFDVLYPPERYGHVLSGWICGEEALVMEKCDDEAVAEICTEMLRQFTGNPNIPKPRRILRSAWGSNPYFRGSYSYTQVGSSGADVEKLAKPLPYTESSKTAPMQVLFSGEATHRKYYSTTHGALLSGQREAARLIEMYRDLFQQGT

Row | inhibition at 20 µM (SMOX [1]) | IC50 (SMOX [1]) | inhibition at 20 µM (recombinant human MAO-B) | inhibition at 20 µM (recombinant human MAO-A) | inhibition at 20 µM (LSD1) | SMILES | Mechanism of inhibition of SMOX (SMOX [5]) | further results
1 | – | – | – | – | – | N[C@@H]1C[C@H]1c1ccccc1 (racemic) [TCP, Tranylcypromine, reference compound] | – | % Inhibition at 20 μM ± SD, MAO-A (recombinant human MAO-A): 92.6 ± 0.2%
2 | 93.6 ± 1% | 8.3 µM | 3.5 ± 1.3% | -5.5 ± 4.2% | -18.7 ± 9.8% | N=C(N)NCCCNCC(O)c1cc(O)cc(O)c1 (stereo not drawn) [Compound 2] | – | –
3 | 96.7 ± 0.2% | 6.02 µM | -16.9 ± 12.3% | -13.7 ± 4.6% | 41.6 ± 24.4% | N=C(N)NCCCCNCC(O)c1cc(O)cc(O)c1 (stereo not drawn) [Compound 3] | – | –
4 | 96.3 ± 0.1% | 0.47 µM | 4.5 ± 9.5% | 7.3 ± 0.7% | 46.2 ± 25.7% | N=C(N)NCCCNCC(O)c1ccc(O)c(O)c1 (stereo not drawn) [Compound 5] | – | –
5 | 10.2 ± 0.9% | – | – | – | – | C=C=CCNCCCCNCC=C=C [MDL-72527, N^1,N^4-bis(2,3-butadienyl)-1,4-butanediamine] | irreversible inhibitor | IC50 (SMOX [5]): 89 to 100 µM; Ki (SMOX [5]): 63 µM
6 | – | – | – | – | – | CC(C)=CCNC(=N)NCCCCN [N-prenylagmatine] | competitive inhibitors | –
7 | – | – | – | – | – | [H]/N=C(\N/C(=N/[H])NCCCCCCNC(=N)NC(=N)Nc1ccc(Cl)cc1)Nc1ccc(Cl)cc1 [chlorhexidine] | competitive inhibitors | Ki (SMOX [5]): 0.55 to 3.8 µM
8 | – | – | – | – | – | N=C(N)NCCCCCCCCNCCCCCCCCNC(=N)N [guazatine] | competitive inhibitors | –
9 | – | – | – | – | – | COc1ccccc1CNCCCCCCNCCCCCCCCNCCCCCCNCc1ccccc1OC [methoctramine] | – | Ki (SMOX [5]): 1.2 µM

Row | SMILES | inhibition at 20 µM (SMOX [1]) | IC50 (SMOX [1]) | inhibition at 20 µM (recombinant human MAO-B) | inhibition at 20 µM (recombinant human MAO-A) | inhibition at 20 µM (LSD1) | Mechanism of inhibition of SMOX (SMOX [5]) | further results
10 | N=C(N)NCCNCC(O)c1ccc(O)c(O)c1 (stereo not drawn) [Compound 4] | 95.7 ± 0.3% | 0.23 µM | 12.6 ± 1.6% | 15.5 ± 0.5% | 31.9 ± 12.6% | – | CC50 at 12 h ([2]; 12 h post treatment, read-out: LC50 (dose corresponding to 50% viability)): 3600 µM; Toxicity after 12-h exposure [3]: did not produce significant toxicity
11 | N=C(N)NCCCNCC(O)c1cc(O)ccc1O (stereo not drawn) [Compound 7] | 99.9 ± 0.1% | 0.23 µM | 29% | 45% | > 73% | – | % Inhibition at 20 μM ± SD, MAO-B (recombinant human MAO-B): 29.1 ± 2.1%; CC50 at 12 h ([2]; 12 h, read-out: LC50): 130 µM; % Inhibition at 20 μM ± SD, MAO-A (recombinant human MAO-A): 45.1 ± 7.7%; Mechanism of inhibition (SMOX [4]; Lineweaver–Burk analysis): competitive; Ki (SMOX [4]; global fit for competitive inhibition, inhibitor 0, 0.1, 1 µM): 0.46 µM
